Patent US9957269B2, “S-imino-S-oxo iminothiazine compounds as bace inhibitors, compositions, and their use” (Merck Sharp & Dohme Corp., priority 2014, dated 2018)

Key:
[1] = target: soluble human BACE1 catalytic domain (Homo sapiens, UniProt P56817); test: BACE1 HTRF FRET Assay; type: biochemical; conditions: Ki calculated from IC50 using the Cheng-Prusoff equation; QSY7-APPswe-Eu substrate 200 nM, pH 5.0
Source text: Na^+-Acetate pH 5.0; 1% Brij-35; Glycerol; Dimethyl Sulfoxide (DMSO); Recombinant human soluble BACE1 catalytic domain (>95% pure); APP Swedish mutant peptide substrate (QSY7-APP^swe-Eu): QSY7-EISEVNLDAEFC-Europium-amide.
A homogeneous time-resolved FRET assay can be used to determine IC50 values for inhibitors of the soluble human BACE1 catalytic domain. This assay monitors the increase of 620 nm fluorescence that resulted from BACE1 cleavage of an APPswedish APP^swe mutant peptide FRET substrate (QSY7-EISEVNLDAEFC-Europium-amide). This substrate contains an N-terminal QSY7 moiety that serves as a quencher of the C-terminal Europium fluorophore (620 nm Em). In the absence of enzyme activity, 620 nm fluorescence is low in the assay and increased linearly over 3 hours in the presence of uninhibited BACE1 enzyme. Inhibition of BACE1 cleavage of the QSY7-APP^swe-Eu substrate by inhibitors is manifested as a suppression of 620 nm fluorescence.
Varying concentrations of inhibitors at 3× the final desired concentration in a volume of 10 ul are preincubated with purified human BACE1 catalytic domain (3 nM in 10 μl) for 30 minutes at 30° C. in reaction buffer containing 20 mM Na-Acetate pH 5.0, 10% glycerol, 0.1% Brij-35 and 7.5% DSMO. Reactions are initiated by addition of 10 μl of 600 nM QSY7-APP^swe-Eu substrate (200 nM final) to give a final reaction volume of 30 μl in a 384 well Nunc HTRF plate. The reactions are incubated at 30° C. for 1.5 hours. The 620 nm fluorescence is then read on a Rubystar HTRF plate reader (BMG Labtechnologies) using a 50 millisecond delay followed by a 400 millisecond acquisition time window. Inhibitor IC50 values are derived from non-linear regression analysis of concentration response curves. Ki values are then calculated from IC50 values using the Cheng-Prusoff equation using a previously determined […] of 8 μM for the QSY7-APP^swe-Eu substrate at BACE.

[2] = target: T1, purified human autoBACE-2 (Homo sapiens, UniProt Q9Y5Z0); test: BACE-2 Assay (BACE-HTRF assay); type: biochemical; conditions: Ki calculated from IC50 using the Cheng-Prusoff equation; QSY7-EISEVNLDAEFC-Eu-amide substrate 200 nM, pH 5.0; read-out: BACE2 Ki
T1 sequence (Q9Y5Z0 63-473 limits assumed): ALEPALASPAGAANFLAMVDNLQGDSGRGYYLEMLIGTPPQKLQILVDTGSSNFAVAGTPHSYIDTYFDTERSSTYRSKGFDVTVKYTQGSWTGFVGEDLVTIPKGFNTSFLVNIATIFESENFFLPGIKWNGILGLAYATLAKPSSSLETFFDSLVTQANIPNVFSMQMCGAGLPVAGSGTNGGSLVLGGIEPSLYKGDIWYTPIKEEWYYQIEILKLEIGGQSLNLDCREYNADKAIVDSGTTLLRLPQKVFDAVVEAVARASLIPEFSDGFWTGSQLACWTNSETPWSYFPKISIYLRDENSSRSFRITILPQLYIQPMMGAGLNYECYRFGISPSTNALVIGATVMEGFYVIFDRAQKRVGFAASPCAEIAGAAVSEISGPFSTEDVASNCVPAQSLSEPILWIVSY
Method: Inhibitor IC50s at purified human autoBACE-2 are determined in a time-resolved endpoint proteolysis assay that measures hydrolysis of the QSY7-EISEVNLDAEFC-Eu-amide FRET peptide substrate (BACE-HTRF assay). BACE-mediated hydrolysis of this peptide results in an increase in relative fluorescence (RFU) at 620 nm after excitation with 320 nm light. Inhibitor compounds, prepared at 3× the desired final concentration in 1× BACE assay buffer (20 mM sodium acetate pH 5.0, 10% glycerol, 0.1% Brij-35) supplemented with 7.5% DMSO are pre-incubated with an equal volume of autoBACE-2 enzyme diluted in 1× BACE assay buffer (final enzyme concentration 1 nM) in black 384-well NUNC plates for 30 minutes at 30° C. […] DMSO is present at 5% final concentration in the assay. Following laser excitation of sample wells at 320 nm, the fluorescence signal at 620 nm is collected for 400 ms following a 50 μs delay on a RUBYstar HTRF plate reader (BMG Labtechnologies). Raw RFU data is normalized to maximum (1.0 nM BACE/DMSO) and minimum (no enzyme/DMSO) RFU values. IC50s are determined by nonlinear regression analysis (sigmoidal dose response, variable slope) of percent inhibition data with minimum and maximum values set to 0 and 100 percent respectively. Similar IC50s are obtained when using raw RFU data. The Ki values are calculated from the IC50 using the Cheng-Prusoff equation.

soluble human BACE1 catalytic domain, sequence (P56817 75-416 limits assumed): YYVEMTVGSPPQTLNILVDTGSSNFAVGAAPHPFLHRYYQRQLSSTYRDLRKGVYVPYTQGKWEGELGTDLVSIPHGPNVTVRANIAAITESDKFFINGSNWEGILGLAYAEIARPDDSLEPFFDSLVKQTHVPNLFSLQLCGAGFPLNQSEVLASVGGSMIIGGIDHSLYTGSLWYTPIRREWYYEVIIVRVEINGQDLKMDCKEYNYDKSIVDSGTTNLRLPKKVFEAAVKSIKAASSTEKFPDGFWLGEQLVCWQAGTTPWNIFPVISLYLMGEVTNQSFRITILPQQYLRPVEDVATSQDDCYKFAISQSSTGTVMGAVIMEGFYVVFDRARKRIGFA

Row | SMILES | Ki [1] [nM] | Ki [2] [nM]
1 | CN=[S@@]1(=O)C[C@@](C)(c2cc(Nc3ccnc4cc(OC)cnc34)ccc2F)NC(=N)C1(C)C [Example 2, (1R,5R)-5-(2-fluoro-5-((7-methoxy-1,5-naphthyridin-4-yl)amino)phenyl)-3-imino-2,2,5-trimethyl-1-(methylimino)-1λ^6-thiomorpholine 1-oxide] | 98 | 75
2 | CN=[S@]1(=O)C[C@@](C)(c2cc(Nc3ccnc4nc(OC)cnc34)ccc2F)NC(=N)C1(C)C [Example 5, (1S,5R)-5-(2-fluoro-5-((3-methoxypyrido[2,3-b]pyrazin-8-yl)amino)phenyl)-3-imino-2,2,5-trimethyl-1-(methylimino)-1λ^6-thiomorpholine 1-oxide] | 1160 | –
3 | CN=[S@]1(=O)C[C@@](C)(c2cc(Nc3ncccc3OC)ccc2F)NC(=N)C1(C)C [Example 9, (1S,5R)-5-(2-fluoro-5-((3-methoxypyridin-2-yl)amino)phenyl)-3-imino-2,2,5-trimethyl-1-(methylimino)-1λ^6-thiomorpholine 1-oxide] | 24 | 6

More lines, now with the values ahead:

Row | Ki [1] [nM] | Ki [2] [nM] | SMILES
4 | 4 | 2 | CN=[S@]1(=O)C[C@@](C)(c2cc(Nc3nccc4cc(Br)cnc34)ccc2F)NC(=N)C1(C)C [Example 6, (1S,5R)-5-(5-((3-bromo-1,7-naphthyridin-8-yl)amino)-2-fluorophenyl)-3-imino-2,2,5-trimethyl-1-(methylimino)-1λ^6-thiomorpholine 1-oxide]
5 | 10 | – | CN=[S@]1(=O)C[C@@](C)(c2cc(Nc3ncnc4cc(Br)cnc34)ccc2F)NC(=N)C1(C)C [Example 7, (1S,5R)-5-(5-((7-bromopyrido[3,2-d]pyrimidin-4-yl)amino)-2-fluorophenyl)-3-imino-2,2,5-trimethyl-1-(methylimino)-1λ^6-thiomorpholine 1-oxide]
6 | 28 | 25 | CN=[S@]1(=O)C[C@@](C)(c2cc(Nc3nccc4cc(OC)cnc34)ccc2F)NC(=N)C1(C)C [Example 4, (1S,5R)-5-(2-fluoro-5-((3-methoxy-1,7-naphthyridin-8-yl)amino)phenyl)-3-imino-2,2,5-trimethyl-1-(methylimino)-1λ^6-thiomorpholine 1-oxide]
7 | 3 | 1 | CN=[S@@]1(=O)C[C@@](C)(c2cc(Nc3ncnc4cc(Br)cnc34)ccc2F)NC(=N)C1(C)C [Example 8, (1R,5R)-5-(5-((7-bromopyrido[3,2-d]pyrimidin-4-yl)amino)-2-fluorophenyl)-3-imino-2,2,5-trimethyl-1-(methylimino)-1λ^6-thiomorpholine 1-oxide]
8 | 14 | 16 | CN=[S@@]1(=O)C[C@@](C)(c2cc(Nc3nccc4nc(OC)cnc34)ccc2F)NC(=N)C1(C)C [Example 1, (1R,5R)-5-(2-fluoro-5-((2-methoxypyrido[3,4-b]pyrazin-5-yl)amino)phenyl)-3-imino-2,2,5-trimethyl-1-(methylimino)-1λ^6-thiomorpholine 1-oxide]
